What was measured:
Format in all cases: cell-based
[1] = biological target: T1, MCM2 (P49736), BromoTag N-term (Homo sapiens, UniProt O60885+P40337, L387A); test: Degradation of BromoTag'ed MCM2 by AGB1
T1 construct: comprising residues 368-440 of human Brd4; MCM2 (endogenous protein, fusion partner in the same polypeptide); expressed in transfected cells
Source text: (§1) Degradation of a variety of target proteins. […] We performed CRISPR knock-in of the BromoTag, as described, into the endogenous loci of five additional proteins. […] The target proteins of Table 6 are all different, are all known to have different cellular roles and function, intracellular expression, and distinctive turnover rates within cells.

[2] = biological target: T2, VPS34/PK3C3 (Q8NEB9), BromoTag N-term (Homo sapiens, UniProt O60885+P40337, L387A); test: Degradation of BromoTag'ed VPS34/PK3C3 by AGB1
T2 construct: comprising residues 368-440 of human Brd4; VPS34/PK3C3 (endogenous protein, fusion partner in the same polypeptide); expressed in transfected cells
T2 sequence (P40337 whole entry, other chains not shown, the tested form may be a part): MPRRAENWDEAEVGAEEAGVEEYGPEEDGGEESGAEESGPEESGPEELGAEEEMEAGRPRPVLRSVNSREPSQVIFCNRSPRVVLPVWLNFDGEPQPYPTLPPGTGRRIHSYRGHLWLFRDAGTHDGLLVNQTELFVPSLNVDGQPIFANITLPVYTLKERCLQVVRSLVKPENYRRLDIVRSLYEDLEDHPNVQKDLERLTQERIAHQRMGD
Source text: as §1

[3] = biological target: T3, BromoTag-Brd2 (Homo sapiens, UniProt O60885+P40337, L387A); test: Time-course degradation assay in heterozygous BromoTag-Brd2 HEK293 cells; conditions: 500 nM
T3 construct: comprising residues 368-440 of human Brd4; Brd2 (endogenous protein, fusion partner in the same polypeptide); eGFP-P2A (upstream marker in the knock-in cassette) (N, cleaved yes); expressed in transfected cells; host or cells: HEK293, heterozygous CRISPR knock-in at the endogenous BRD2 locus
T3 sequence (P40337 whole entry, other chains not shown, the tested form may be a part): as above
Protocol: Time-course Degradation Assay. Time-course degradation assays using PROTACs AGB1, AGB2, and AGB3 were performed on the genotype verified heterozygous BromoTag-Brd2 HEK293 cell line. Heterozygous BromoTag-Brd2 HEK293 cells were plated at a density of 5×10^5 cells per well of a 6 healthy plate a day prior to initiation of the Timecourse assay. PROTAC's AGB1 & AGB2 were diluted in DMSO to a concentration of 1 mM prior to being further diluted 1:2000 in 2 mL of DMEM to a concentration of 500 nM per timepoint. PROTAC AGB3 was diluted in DMSO to a concentration of 2 mM prior to being further diluted 1:2000 in 2 mL of DMEM to a concentration of 1 μM per timepoint. Timepoint range was between 0-36 h. Treatment was applied in a staggered fashion to enable all timepoints to be harvested at the same time.
Western Blotting. All cells were harvested on ice with RIPA lysis, and extraction buffer (ThermoFisher Scientific, 89901) supplemented with protease inhibitor cocktail (Merck, 11697498001) and Benzonase® Nuclease (Sigma, E1014) before being store at −20° C. prior to use. Total protein quantity was determined using the BCA protein assay (#23225, Pierce, Rockford, Illinois). Protein concentration was determined using the BCA assay (ThermoFisher Scientific, 23225). Samples were then prepared and loaded onto NuPAGE™ 4-12% Bis-Tris Midi gels (ThermoFisher Scientific, WG1403A), followed by the transfer of the proteins onto nitrocellulose membranes (EMD Millipore). The membranes were blocked for 1 h prior to incubation with the primary antibodies using 5% Milk TBST. Membranes were probed for Brd2 (Abcam, Ab139690, 1:1000), Brd3 (Abcam, Ab50818, 1:4000), Brd4 (Abcam, Ab128874, 1:1000) or our polyclonal Brd4^BD2 L387A antibody. […] All western blots were analysed for band intensities using Image Lab from Bio-Rad (LI-COR, Biosciences). The data extracted from these blots were then plotted and analysed using Prism (v. 8.2.0, GraphPad).

[4] = biological target: T4, MCM4 (P33991), BromoTag N-term (Homo sapiens, UniProt O60885+P40337, L387A); test: Degradation of BromoTag'ed MCM4 by AGB1
T4 construct: comprising residues 368-440 of human Brd4; MCM4 (endogenous protein, fusion partner in the same polypeptide); expressed in transfected cells
T4 sequence (P40337 whole entry, other chains not shown, the tested form may be a part): as above
Source text: as §1

T1 sequence (P40337 whole entry, other chains not shown, the tested form may be a part): as above

CC[C@@H](C(=O)OCCOCCOCCOCC(=O)N[C@H](C(=O)N1C[C@H](O)C[C@H]1C(=O)NCc1ccc(-c2scnc2C)cc1)C(C)(C)C)[C@@H]1N=C(c2ccc(Cl)cc2)c2c(sc(C)c2C)-n2c(C)nnc21 (single isomer, unassigned) [AGB1 (46)]
Dmax [1]: > 95% | pDC50 ([1]; BromoTag'ed MCM2, N-term tag): 8.0 | Dmax [2]: > 99% | pDC50 ([2]; BromoTag'ed VPS34/PK3C3, N-term tag): 8.0 | time to completely degrade BromoTag-Brd2 [3]: ≤ 6 h | Dmax [4]: > 99% | pDC50 ([4]; BromoTag'ed MCM4, N-term tag): 8.1

From US20250130239A1, “PROTEIN DEGRADER” (University of Dundee, priority 2021, published 2025)
